From US4241063A, “Purine derivatives and their use as bronchodilators” (Bristol-Myers Company, priority 1979, dated 1980)
Values after ≈ are worked out from the molar mass of the structure shown. Where two headings read alike, the source gives them in different places.

How the values were obtained:
[1] = test system: Tracheal chains of guinea pig; experiment: In vitro bronchodilator activity (guinea pig tracheal chain relaxation, Magnus method); assay type: cell-based; conditions: Cavia porcellus, read-out: EC50 (concentration producing a relaxation which is 50% of the maximum response to 0.1 mcg./ml. of isoproterenol), relative to maximum response to 0.1 mcg./ml. isoproterenol
Description: Tracheal chains of guinea pig were prepared by the method of A. Akcasu, Arch. Int. Pharmacodyn. […] The response to each test compound was recorded by the Magnus method and expressed as a percentage of the maximum response obtained with 0.1 mcg./ml. of isoproterenol prior to each experiment.

[2] = test system: intratracheal pressure (ITP) in the guinea pig; experiment: In vivo bronchodilator activity: decrease in intratracheal pressure (ITP) in anesthetized guinea pig; conditions: for ED50: Cavia porcellus, read-out: ITP ED50 (dose resulting in a 50% decrease in intratracheal pressure)
Description: (§1) The trachea of anesthetized guinea pig was cannulated and the ITP recorded on a polygraph under artificial ventilation. Arterial blood pressure (ABP; reflecting hypotensive activity) was also measured during the experiment. Either intravenous or intraduodenal routes of administration are used. […] The ratio of hypotensive ED20 /bronchodilating ED50 reflects an assessment of the separation of desirable bronchodilator activity from undesirable cardiovascular (hypotensive) effect in the compounds.

[3] = test system: Arterial blood pressure (ABP); experiment: In vivo hypotensive activity: arterial blood pressure (ABP) in anesthetized guinea pig
Description: as §1

Row | EC50 [1] [µg/mL] | SMILES | ED50 ([2]; intraduodenal) [mg/kg] | ED50 ([2]; intravenous) [mg/kg] | Ratio ABP/ITP (hypotensive ED20/bronchodilating ED50) ([2]; intraduodenal) | Ratio ABP/ITP (hypotensive ED20/bronchodilating ED50) ([2]; intravenous) | ABP ED20 (dose which reduces arterial blood pressure by 20%) ([3]; intraduodenal) [mg/kg] | ABP ED20 (dose which reduces arterial blood pressure by 20%) ([3]; intravenous) [mg/kg]
1 | 0.17 (≈ 0.613 µM) | CCCOc1nc(N)c2ncn(C3CCCCO3)c2n1 (centres unmarked) [Example 3, 2-n-Propoxy-9-(tetrahydropyran-2-yl)-9H-adenine] | 1.4 | 0.26 | 9.6 | 7.3 | 13.5 | 1.9
2 | > 3 | COc1nc(N)c2ncn(C3CCCCO3)c2n1 (centres unmarked) [Example 2, 2-Methoxy-9-(tetrahydropyran-2-yl)-9H-adenine] |  | 2.2 |  |  |  | > 1
3 |  | Cn1c(=O)c2[nH]cnc2n(C)c1=O [Aminophylline, reference compound] |  |  |  |  |  | 1.4
4 | 0.45 (≈ 1.77 µM) | Nc1nc(Cl)nc2c1ncn2C1CCCCO1 (centres unmarked) [Example 1, 2-Chloro-9-(tetrahydropyran-2-yl)-9H-adenine] |  | 0.23 |  |  |  | > 1
